From patent US20170320870A1 (Medical Research Council Technology, priority 2009, published 2017)

Target: T1, LRRK2 wild type (recombinant human, catalytic domain amino acids 970-2527, GST-tagged) (Homo sapiens, UniProt Q5S007)
T1 construct: The wild type used was recombinant human, catalytic domain (amino acids 970-2527) GST-tagged, expressed in insect cells; GST; purchased Invitrogen Corporation PV4873; host or cells: insect cells
Assay: LRRK2 wild type protein kinase assay ([γ-33P] ATP, peptide substrate […]), IC50
Format: biochemical
Conditions: LRRK2 (variant not given); read-out: Potency score, LRRK2 IC50
Summary of the method: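 Insect-cell-expressed enzyme (~5 nM), no activation, incubated 180 min at ~21 °C in 50 mM Tris-HCl pH 7.5, 0.1 mM EGTA, 1 mM DTT, 10 mM MgCl2 with 100 μM peptide substrate and [γ-33P]ATP. Reaction stopped with orthophosphoric acid, captured on P81 filters and counted; IC50 from 10 concentrations in duplicate.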

T1 sequence (Q5S007 970-2527): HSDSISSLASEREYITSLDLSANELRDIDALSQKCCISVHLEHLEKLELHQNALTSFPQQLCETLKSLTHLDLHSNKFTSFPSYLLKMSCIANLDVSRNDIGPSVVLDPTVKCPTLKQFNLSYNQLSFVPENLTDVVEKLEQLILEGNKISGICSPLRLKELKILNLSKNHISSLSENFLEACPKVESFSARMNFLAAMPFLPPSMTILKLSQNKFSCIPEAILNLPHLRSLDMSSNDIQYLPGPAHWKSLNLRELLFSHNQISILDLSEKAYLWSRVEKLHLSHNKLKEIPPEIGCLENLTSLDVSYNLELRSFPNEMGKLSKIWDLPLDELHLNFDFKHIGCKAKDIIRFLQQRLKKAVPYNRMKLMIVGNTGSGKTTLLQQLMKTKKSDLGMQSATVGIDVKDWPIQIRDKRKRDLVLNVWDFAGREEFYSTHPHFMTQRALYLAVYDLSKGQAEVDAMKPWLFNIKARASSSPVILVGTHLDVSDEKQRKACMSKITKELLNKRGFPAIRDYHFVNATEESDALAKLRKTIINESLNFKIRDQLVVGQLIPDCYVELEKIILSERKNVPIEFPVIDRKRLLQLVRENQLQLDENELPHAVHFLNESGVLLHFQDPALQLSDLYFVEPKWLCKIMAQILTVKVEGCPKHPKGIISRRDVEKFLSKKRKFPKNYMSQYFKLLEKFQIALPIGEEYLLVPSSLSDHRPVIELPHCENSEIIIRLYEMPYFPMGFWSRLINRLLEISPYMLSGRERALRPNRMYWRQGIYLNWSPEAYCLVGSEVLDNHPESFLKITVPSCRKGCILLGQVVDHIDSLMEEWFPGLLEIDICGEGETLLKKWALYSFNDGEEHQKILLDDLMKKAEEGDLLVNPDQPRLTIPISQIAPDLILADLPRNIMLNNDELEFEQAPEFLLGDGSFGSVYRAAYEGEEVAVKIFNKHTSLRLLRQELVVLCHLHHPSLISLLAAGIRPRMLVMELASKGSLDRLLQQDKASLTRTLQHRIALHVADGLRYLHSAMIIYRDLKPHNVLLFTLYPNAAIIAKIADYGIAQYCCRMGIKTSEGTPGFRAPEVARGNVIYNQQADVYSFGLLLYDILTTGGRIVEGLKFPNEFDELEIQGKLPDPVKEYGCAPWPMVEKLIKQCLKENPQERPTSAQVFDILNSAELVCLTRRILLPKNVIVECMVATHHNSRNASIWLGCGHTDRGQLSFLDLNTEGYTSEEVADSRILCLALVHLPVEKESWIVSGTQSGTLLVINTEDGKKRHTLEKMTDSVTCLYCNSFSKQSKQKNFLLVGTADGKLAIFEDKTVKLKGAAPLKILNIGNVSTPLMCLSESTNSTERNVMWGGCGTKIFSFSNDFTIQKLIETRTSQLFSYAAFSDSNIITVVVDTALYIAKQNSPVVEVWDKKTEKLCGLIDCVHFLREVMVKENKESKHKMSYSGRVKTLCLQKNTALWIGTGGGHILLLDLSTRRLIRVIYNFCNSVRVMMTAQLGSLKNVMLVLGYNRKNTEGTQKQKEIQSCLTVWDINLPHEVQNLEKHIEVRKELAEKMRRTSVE

| SMILES | IC50 [nM] |
| --- | --- |
| Cc1n[nH]c2ccnc(OCC3CC3)c12 [Example 123, 4-Cyclopropyl-methoxy-3-methyl-1H-pyrazolo [4,3-c]pyridine] | 100 to 1000 |
| O=C1CCCN1c1n[nH]c2ccnc(NC3CCCCC3)c12 [Example 230, 1-(4-Cyclohexylamino-1H-pyrazolo[4,3-c]pyridin-3-yl)-pyrrolidin-2-one] | 1000 to 10000 |
| Cc1n[nH]c2ccnc(-c3ccccc3F)c12 [Example 49, 4-(2-Fluoro-phenyl)-3-methyl-1H-pyrazolo[4,3-c]pyridine] | 100 to 1000 |
| Cc1n[nH]c2ccnc(O[C@H](C)Cc3ccccc3)c12 [Example 299, 3-Methyl-4-((R)-1-methyl-2-phenyl-ethoxy)-1H-pyrazolo[4,3-c]pyridine] | < 100 |
| COc1ccccc1CNc1nccc2[nH]nc(C)c12 [Example 336] | 1000 to 10000 |
| Cc1n[nH]c2ccnc(NCCc3ccc(Cl)cc3)c12 [Example 329, [2-(4-Chloro-phenyl)-ethyl]-(3-methyl-1H-pyrazolo[4,3-c]pyridin-4-yl)-amine] | 100 to 1000 |
| Cc1cc(C)n(CCNc2nccc3[nH]nc(C)c23)n1 [Example 323, [2-(3,5-Dimethyl-pyrazol-1-yl)-ethyl]-(3-methyl-1H-pyrazolo[4,3-c]pyridin-4-yl)-amine] | 1000 to 10000 |
| Cc1n[nH]c2ccnc(NC3CC3)c12 [Example 11, Cyclopropyl-(3-methyl-1H-pyrazolo[4,3-c]pyridin-4-yl)-amine] | 1000 to 10000 |
| Cc1n[nH]c2ccnc(Nc3cc(F)cc(F)c3)c12 [Example 69, (3,5-Difluoro-phenyl)-(3-methyl-1H-pyrazolo[4,3-c]pyridin-4-yl)-amine] | 100 to 1000 |
| Cc1n[nH]c2ccnc(Nc3ccc(C(=O)N(C)c4ccccc4)cc3)c12 [Example 109, N-Methyl-4-(3-methyl-1H-pyrazolo[4,3-c]pyridin-4-ylamino)-N-phenyl-benzamide] | 1000 to 10000 |
| Cc1n[nH]c2ccnc(NCC3CCOCC3)c12 [Example 17] | 1000 to 10000 |
| O=C(CC1CC1)Nc1cccc(CCc2n[nH]c3ccnc(NC4CCCCC4)c23)c1 [Example 223, N-{3-[2-(4-Cyclohexylamino-1H-pyrazolo[4,3-c]pyridin-3-yl)-ethyl]-phenyl}-2-cyclopropyl-acetamide] | < 100 |
| Cc1nc2cc(Nc3nccc4[nH]nc(C)c34)ccc2s1 [Example 328, (2-Methyl-benzothiazol-5-yl)-(3-methyl-1H-pyrazolo[4,3-c]pyridin-4-yl)-amine] | 1000 to 10000 |
| Cc1n[nH]c2ccnc(O[C@@H](C)C(C)C)c12 [Example 292, 4-((S)-1,2-Dimethyl-propoxy)-3-methyl-1H-pyrazolo [4,3-c]pyridine] | 100 to 1000 |
| Cc1n[nH]c2ccnc(Nc3ccn(C)n3)c12 [Example 61, (3-Methyl-1H-pyrazolo[4,3-c]pyridin-4-yl)-(1-methyl-1H-pyrazol-3-yl)-amine] | 100 to 1000 |
| O=C(CCc1n[nH]c2ccnc(NC3CCCCC3)c12)N1CCC(F)(F)CC1 [Example 168, 3-(4-Cyclohexylamino-1H-pyrazolo[4,3-c]pyridin-3-yl)-1-(4,4-difluoro-piperidin-1-yl)-propan-1-one] | 100 to 1000 |
| Cc1cccc(Nc2nccc3[nH]nc(C)c23)c1 [Example 319, (3-Methyl-phenyl)-(3-methyl-1H-pyrazolo[4,3-c]pyridin-4-yl)-amine] | 100 to 1000 |
| O=C(CCc1n[nH]c2ccnc(NC3CCCCC3)c12)NCC1CCOCC1 [Example 185, 3-(4-Cyclohexylamino-1H-pyrazolo[4,3-c]pyridin-3-yl)-N-(tetrahydro-pyran-4-ylmethyl)-propionamide] | 1000 to 10000 |
| CC1CN(C(=O)c2ccc(CCc3n[nH]c4ccnc(NC5CCCCC5)c34)cc2)CCN1C (centres unmarked) [Example 247, {4-[2-(4-Cyclohexylamino-1H-pyrazolo[4,3-c]pyridin-3-yl)-ethyl]-phenyl}-(3,4-dimethyl-piperazin-1-yl)-methanone] | < 100 |
| CC[C@@H](C)Oc1nccc2[nH]nc(C)c12 [Example 122, 4-((R)-sec-Butoxy)-3-methyl-1H-pyrazolo[4,3-c] pyridine] | < 100 |
| Cc1n[nH]c2ccnc(OC3CCCCCC3)c12 [Example 283, 4-Cycloheptyloxy-3-methyl-1H-pyrazolo[4,3-c] pyridine] | < 100 |
| Cc1n[nH]c2ccnc(Nc3cccc(NS(C)(=O)=O)c3)c12 [Example 73, N-[3-(3-Methyl-1H-pyrazolo[4,3-c]pyridin-4-ylamino)-phenyl]-methanesulfonamide] | 100 to 1000 |
| Cc1n[nH]c2ccnc(Nc3ccc4cn[nH]c4c3)c12 [Example 93, (1H-Indazol-6-yl)-(3-methyl-1H-pyrazolo[4,3-c]pyridin-4-yl)-amine] | 100 to 1000 |
| Cc1n[nH]c2ccnc(N[C@H](C)C3CCCCC3)c12 [Example 38, ((R)-1-Cyclohexyl-ethyl)-(3-methyl-1H-pyrazolo[4,3-c]pyridin-4-yl)-amine] | 1000 to 10000 |

| SMILES | IC50 [nM] |
| --- | --- |
| Brc1n[nH]c2ccnc(NC3CCCCC3)c12 [Example 134, (3-Bromo-1H-pyrazolo[4,3-c]pyridin-4-yl)-cyclohexyl-amine] | < 100 |
| Cc1n[nH]c2ccnc(Nc3ccc4nccnc4c3)c12 [Example 352, (3-Methyl-1H-pyrazolo[4,3-c]pyridin-4-yl)-quinoxalin-6-yl-amine] | 1000 to 10000 |
| Cc1n[nH]c2ccnc(N(C)C3CCCCC3)c12 [Example 35, Cyclohexyl-methyl-(3-methyl-1H-pyrazolo[4,3-c]pyridin-4-yl)-amine] | 1000 to 10000 |
| Cc1n[nH]c2ccnc(NCc3cccc(F)c3)c12 [Example 317, (3-Fluoro-benzyl)-(3-methyl-1H-pyrazolo[4,3-c]pyridin-4-yl)-amine] | 1000 to 10000 |
| Cc1n[nH]c2ccnc(Nc3ccc(C(N)=O)cc3)c12 [Example 83, 4-(3-Methyl-1H-pyrazolo[4,3-c]pyridin-4-ylamino)-benzamide] | 100 to 1000 |
| Cc1n[nH]c2ccnc(N3CCN(c4ccccn4)CC3)c12 [Example 9, 3-Methyl-4-(4-pyridin-2-yl-piperazin-1-yl)-1H-pyrazolo[4,3-c]pyridine] | 1000 to 10000 |
| Cc1n[nH]c2ccnc(N(C)Cc3ccccc3)c12 [Example 95, Benzyl-methyl-(3-methyl-1H-pyrazolo[4,3-c]pyridin-4-yl)-amine] | 1000 to 10000 |
| Cc1n[nH]c2ccnc(O[C@H](C)C(C)C)c12 [Example 288, 4-((R)-1,2-Dimethyl-propoxy)-3-methyl-1H-pyrazolo [4,3-c]pyridine] | < 100 |
| Cc1n[nH]c2ccnc(-c3ccc(F)cc3)c12 [Example 50, 4-(4-Fluoro-phenyl)-3-methyl-1H-pyrazolo[4,3-c]pyridine] | 1000 to 10000 |
| CCC[C@@H](C)Oc1nccc2[nH]nc(C)c12 [Example 286, 3-Methyl-4-((R)-1-methyl-butoxy)-1H-pyrazolo[4,3-c]pyridine] | 100 to 1000 |
| COc1nccc2[nH]nc(CCC(=O)N3CCC[C@H](c4ccccc4)C3)c12 [Example 260, 3-(4-Methoxy-1H-pyrazolo[4,3-c]pyridin-3-yl)-1-((R)-3-phenyl-piperidin-1-yl)-propan-1-one] | 100 to 1000 |
| c1cc2[nH]nc(-c3cnn(CCN4CCOCC4)c3)c2c(NC2CCCCC2)n1 [Example 233, Cyclohexyl-{3-[1-(2-morpholin-4-yl-ethyl)-1H-pyrazol-4-yl]-1H-pyrazolo[4,3-c]pyridin-4-yl}-amine] | 100 to 1000 |
| Cc1n[nH]c2ccnc(-c3cnn(C)c3)c12 [Example 47, 3-Methyl-4-(1-methyl-1H-pyrazol-4-yl)-1H-pyrazolo[4,3-c]pyridine] | 1000 to 10000 |
| CC1CCCN(C(=O)CCc2n[nH]c3ccnc(NC4CCCCC4)c23)C1 (centres unmarked) [Example 199, 3-(4-Cyclohexylamino-1H-pyrazolo[4,3-c]pyridin-3-yl)-1-(3-methyl-piperidin-1-yl)-propan-1-one] | < 100 |
| Cc1n[nH]c2ccnc(OC3CCCC3(C)C)c12 (centres unmarked) [Example 289, 4-(2,2-Dimethyl-cyclopentyloxy)-3-methyl-1H-pyrazolo[4,3-c]pyridine] | 100 to 1000 |
| COCC(=O)Nc1ccc(CCc2n[nH]c3ccnc(NC4CCCCC4)c23)cc1 [Example 272, N-{4-[2-(4-Cyclohexylamino-1H-pyrazolo[4,3-c]pyridin-3-yl)-ethyl]-phenyl}-2-methoxy-acetamide] | < 100 |
| Cc1n[nH]c2ccnc(Nc3ccc(N4CCCC4=O)cc3)c12 [Example 89, 1-[4-(3-Methyl-1H-pyrazolo[4,3-c]pyridin-4-ylamino)-phenyl]-pyrrolidin-2-one] | 100 to 1000 |
| Cc1n[nH]c2ccnc(Oc3ccc(-n4ccnc4)cc3)c12 [Example 120, 4-(4-Imidazol-1-yl-phenoxy)-3-methyl-1H-pyrazolo[4,3-c]pyridine] | 100 to 1000 |
| O=C(CCc1n[nH]c2ccnc(NC3CCCCC3)c12)N1CCCCC1c1cccnc1 (centres unmarked) [Example 208, 3-(4-Cyclohexylamino-1H-pyrazolo[4,3-c]pyridin-3-yl)-1-(3,4,5,6-tetrahydro-2H-[2,3′]bipyridinyl-1-yl)-propan-1-one] | < 100 |
| Cc1n[nH]c2ccnc(-c3ccoc3)c12 [Example 58, 4-Furan-3-yl-3-methyl-1H-pyrazolo[4,3-c]pyridine] | 1000 to 10000 |
| Cc1n[nH]c2ccnc(N(C)CC(C)C)c12 [Example 91, Isobutyl-methyl-(3-methyl-1H-pyrazolo[4,3-cc]pyridin-4-yl)-amine] | 1000 to 10000 |
| Cc1n[nH]c2ccnc(Nc3ccc(N4CCOCC4)nc3)c12 [Example 63, (3-Methyl-1H-pyrazolo[4,3-c]pyridin-4-yl)-(6-morpholin-4-yl-pyridin-3-yl)-amine] | 100 to 1000 |
| Oc1nccc2[nH]nc(-c3ccoc3)c12 [Example 167, 3-Furan-3-yl-1H-pyrazolo[4,3-c]pyridin-4-ol] | 100 to 1000 |
